Experimental data published in patent publication US7205261B2, “Use of certain N-acylethanolamines to achieve ethylene- and cytokinin-like effects in plants and fungi” (Nutra-Park, Inc., priority 2002, dated 2007).
Where two headings read alike, the source gives them in different places.

Assays:
maize roots = assay: Corn root bioassay (ethylene production by maize roots); type: in vivo, Zea mays L.; conditions: for increase of ethylene production (in words): other experiments using a different treatment time; for Ethylene, % of control / Ethylene: 20 mg/l
Method: Corn root bioassay: It is well established that roots of Zea mays produce ethylene when exposed to a variety of stresses (for review, see Morgan, PW and Drew, MC, Physiologia Plantarum 100: 620–630, 1997). Mechanical impedance and hypoxia both induce ethylene formation and usually as early as 1 hour after exposure. In response to ethylene treatment, maize roots show decreased expansion and elongation, a high incidence of cell death and the formation of aerenchyma tissue—particularly evident when roots are exposed to hypoxic conditions (Drew, MC et al., Trends in Plant Science 5: 123–127, 2000, Morgan and Drew 1997).
Seeds of Zea mays L. were sown in flats of Perlite, covered with a layer of vermiculite, and irrigated daily with water and/or 1/10 Hoagland solution. Seedlings were cultivated under continuous illumination at 22–25° C. and used when 7 d old. Seedlings were removed from the Perlite and washed under running tap water. Seedlings were allowed to acclimate in water and/or 1/10 Hoagland solution for several hours before being transferred to Falcon tubes containing the test compounds (all 20 mg/l) prepared in 1/10 Hoagland solution. […] Roots were then transferred to gas-tight tubes each containing 200 μl of water. The tubes were sealed and incubated at 26° C. for 1–2 h in darkness before gas samples were drawn from the incubation tubes using a 1 ml syringe and assayed by gas chromatography (Romera, FJ et al. (1999) Annals of Botany 83, 51–55).

[1] = system: Raphanus sativus L. cv. Cherry Belle cotyledons; assay: Radish cotyledon bioassay (expansion growth and chlorophyll accumulation); type: in vivo; design: Chlorophyll a + b: unit not given here; conditions: for Change in fresh weight: continuous illumination, 25° C., ten cotyledons; for activity at 20 µg/mL: Raphanus sativus, read-out: Change in fresh weight, % of control; for cytokinin-like activities (summary of the examples) / ethylene-like activities (summary of the examples): summary statement in the description
From the text: Radish cotyledon bioassay: This bioassay using Raphanus sativus L. cv. Cherry Belle cotyledons was developed by Letham, DS (Physiologia Plantarum 25, 391–396, 1971, incorporated by reference in its entirety) to evaluate the efficacy of cytokinin on cell enlargement. Success using this assay is not restricted to radish. […] In addition to their effect on cell division, cytokinin plays a major role in driving cell enlargement. Compounds in this class of phytohormone and with cytokinin activity also help maintain photosynthetic activity and productivity and abolish proteolytic activity. In cotyledon leaf systems, a requirement for cytokinin is critical and removal of the roots (i.e. the presumed source of cytokinin) renders the cotyledon leaves unable to expand. Exposure to cytokinin (0.02–22 μg/ml) results in a dramatic increase in fresh weight of cotyledons within 72 hours. This effect is not observed with either gibberellin or auxin and is usually delayed or inhibited by abscisic acid and the ethylene precursor, 1-aminocyclopropane-1-carboxylic acid (ACC). […] Thus, the mode of action of cytokinin in this system appears to be similar to that of indole-3-acetic acid (IAA) in auxin-induced stem elongation, a process that depends on an increase in the mechanical extensibility of the cell wall. However, cytokinin antagonizes IAA-mediated cell elongation and appears to do so by promoting ethylene production. Furthermore, cytokinin-induced cell expansion is not usually accompanied by proton (H^+) extrusion and no change in plasma membrane ATPase activity is evident.
Seeds of Raphanus sativus L. cv. Cherry-Belle were germinated in darkness at 24° C. for 36 h in Petri dishes containing filter paper wetted with distilled water. The smaller of the two cotyledons was excised, the fresh weight determined, and 10 cotyledons placed adaxial side down on filter paper in Petri dishes containing 10 ml of KPO4 buffer (2 mM, pH 6.0) and the compounds to be tested at 20 mg/l. […] Chlorophyll content was determined after extraction of tissue into 80% ethanol (containing butylated hydroxytoluene (BHT) 10 mg/l) using the equations Chl a=(13.95A663)−(6.88A647) and Chl b=(24.96A652)−(7.32A663) as described by Lichtenthaler, HK, Methods in Enzymology 148: 350–382, 1987, incorporated by reference in its entirety. FIG. 6 illustrates the difference in cotyledon size in response to the cytokinin kinetin.

[2] = Table 3, 48 h incubation, 20 mg/l

SMILES	increase of ethylene production (in words) (maize roots)	Chlorophyll (mg/g FW) a + b ([1]; Experiment 2, 20 mg/l, 48 h)	Chlorophyll (μg/cotyledon) a + b ([1]; Experiment 2, 20 mg/l, 48 h)	Chlorophyll a/b ([1]; Experiment 2, 20 mg/l, 48 h)	Change in fresh weight ([1]; Experiment 2, 20 mg/l, 48 h)	activity at 20 µg/mL ([1]; Experiment 2, 20 mg/l, 48 h)	hormone-like activity with respect to expansion growth (in words) [1, 2]	cytokinin-like activities (summary of the examples) [1]	ethylene-like activities (summary of the examples) [1]	Chlorophyll a/b ([1]; Experiment 1, 20 mg/l, 72 h)	Change in fresh weight ([1]; Experiment 1, 20 mg/l, 72 h)	also measured
CCCCCCCC/C=C\CCCCCCCC(=O)NCCO [NAE-18:1(Δ9), N-Oleoyl-2-aminoethanol]	effective	1.99 mg/g FW	20.29 μg/cotyledon	2.0	5.78 ± 0.96 mg	71%	ethylene-like activity	cytokinin-like activities	ethylene-like activities	–	–	cotyledon expansion (in words) [1, 2]: slowed cotyledon expansion
CCCCCCCCCCCCCCCC(=O)NCCO [NAE-16:0, N-Hexadecanoyl-2-aminoethanol]	–	1.44 mg/g FW	24.18 μg/cotyledon	1.7	12.42 ± 2.26 mg	153%	cytokinin-like activity	cytokinin-like activities	–	–	–	chlorophyll content per unit mass (in words) [1, 2]: decreased chlorophyll content per unit mass; chlorophyll per cotyledon (in words) [1, 2]: increased chlorophyll per cotyledon
CCCCCC(=O)NCCO [NAE-6:0, N-Hexanoly-2-aminoethanol]	–	1.73 mg/g FW	19.80 μg/cotyledon	2.0	7.02 ± 0.98 mg	–	ethylene-like activity	–	ethylene-like activities	1.6	8.04 ± 3.86 mg	Ethylene, % of control (maize roots; Experiment 1, 72 h): 210%; Ethylene (maize roots; experiment 1, 72 h illumination, roots incubated 2 h in gas tight tubes): 1244.0 ± 406.2 nL/g FW/h; Ethylene, % of control (maize roots; experiment 2, 36 h): 141%; Ethylene (maize roots; experiment 2, 36 h illumination, roots incubated 2 h in darkness at 24° C.): 40.58 ± 11.85 pmol/g FW/h; relative efficacy on ethylene formation (in words) (maize roots; first experiment (Table 4)): strongest effect; Change in fresh weight, % of control ([1]; Experiment 1, 20 mg/l, 72 h): 57%; Chlorophyll a + b ([1]; Experiment 1, 20 mg/l, 72 h): 0.65; Change in fresh weight, % of control ([1]; Experiment 2, 20 mg/l, 48 h): 87%; cotyledon expansion (in words) ([1]; Table 2, 72 h incubation, 20 mg/l): significantly slowed cotyledon expansion
CCCC(=O)NCCO [NAE-4:0, N-Butyroyl-2-aminoethanol]	effective	2.00 mg/g FW	23.49 μg/cotyledon	1.9	7.15 ± 1.16 mg	88%	ethylene-like activity	cytokinin-like activities	ethylene-like activities	–	–	–
CCCCC(CC)C(=O)NCCO (stereo not shown) [NAE-EH, N-(2-Ethylhexanoyl)-2-aminoethanol]	–	1.63 mg/g FW	19.73 μg/cotyledon	1.8	7.69 ± 1.16 mg	95%	–	–	–	–	–	–
NC1(C(=O)O)CC1 [ACC, 1-aminocyclopropane-1-carboxylic acid, reference compound]	–	1.42 mg/g FW	12.27 μg/cotyledon	1.8	4.25 ± 0.63 mg	52%	–	–	–	3.7	5.54 ± 2.87 mg	activity at 20 µg/mL ([1]; Experiment 1, 20 mg/l, 72 h): 40%
